Data published in patent US9056833B2, “Crystalline phases of 2′-{[2-(4-methoxy-phenyl)-acetylamino]-methyl}-biphenyl-2-carboxylic acid (2-pyridin-3-yl-ethyl)-amide” (SANOFI-AVENTIS DEUTSCHLAND GMBH, priority 2009, dated 2015).
Values belong to the molecule of their own block, whether it stands above or below them.

How the values were obtained:
Type in all cases: physicochemical
[1] = Thermodynamic stability of the polymorphs as a function of temperature
[2] = Maturation experiments (slurry conversion), relative stability of the polymorphs; settings: investigated temperature range 0° C. to 80° C.
Method: By maturation experiments (slurry conversion) in the temperature region from 0° C. to 80° C. the relative stability of the polymorphs of compound I was investigated.
Maturation experiments (a) to (d) were performed under the specified conditions, starting from a 1:1mixture of polymorphs 1and 4. • (a) The phase mixture was suspended in ethanol. After stirring the suspension for two days at 60° C., the solid was quickly isolated by vacuum filtration. • (b) The phase mixture was suspended in butyl acetate. After stirring the suspension for two days at 60° C., the solid was quickly isolated by vacuum filtration. • (c) The phase mixture was suspended in 1-pentanol. After stirring the suspension for four hours at 80° C., the solid was quickly isolated by vacuum filtration. • (d) The phase mixture was suspended in 1-octanol. After stirring the suspension for four hours at 80° C., the solid was quickly isolated by vacuum filtration.
Maturation experiments (e) to (p) were performed by stirring the suspension under the specified conditions and isolating the solid by vacuum filtration, starting from polymorph 4. • (e) Maturation of 0.208g of compound I in 1.3ml of water/methanol (1:1) was performed at room temperature for four weeks. […]

[3] = Dynamic vapor sorption (DVS), moisture sorption/desorption isotherms; settings: 25° C.
Method: Moisture sorption/desorption isotherms were recorded on a DVS-1from Surface Measurement Systems. […] The data were evaluated with the software DVSWin V. 2.15With samples of phase 1, 2, 3and 4of compound I the following water uptake (in mass percent) as a function of the relative humidity was determined.

[4] = Temperature-resolved X-ray powder diffraction, DSC and TGA of toluene solvate; settings: on loss of solvent
Method: All X-ray powder diffraction was performed with Stoe Stadi-P transmission diffractometers using CuKα1radiation. For room temperature powder diffraction, linear position sensitive detectors were used, while for temperature-resolved XRPD image plate position sensitive detectors (IP-PSDs) were used. Unless stated otherwise, X-ray powder diffraction was performed at room temperature. Dry samples were investigated in a flat preparation whereas suspensions were investigated in quartz glass capillaries. […] The 2θ (2theta) angles in ° (degree) and the relative intensities of characteristic reflections are specified above, wherein the relative intensity of a reflection is designated as “strong” if it is more than 75% of the intensity of the most intense reflection or it is the most intense reflection itself, and as “medium” if it is between 20% and 75% of the intensity of the most intense reflection.
All DSC measurements were performed with a Mettler DSC822e (module DSC822e/700/109/414935/0025). If not indicated differently, 40μl Al crucibles with sealed lid and hole were used. All measurements were carried out in a nitrogen gas flow of 50mL/minute. The heating rate was 10° C./minute unless indicated otherwise. Temperature and heat flow were calibrated via the melting peak of an indium reference. The measured data were evaluated with the software STARe V6.1.

[5] = Solubility compared to other polymorphs
[6] = Stability of chloroform solvate outside the mother liquor

form obtained on transformation [4]: transforms to polymorph 4
SMILES: COc1ccc(CC(=O)NCc2ccccc2-c2ccccc2C(=O)NCCc2cccnc2)cc1 [toluene solvate, 2′-{[2-(4-methoxy-phenyl)-acetylamino]-methyl}-biphenyl-2-carboxylic acid (2-pyridin-3-yl-ethyl)-amide]

temperature range in which the polymorph is thermodynamically stable [1]: around 90 °C | water uptake (in mass percent) ([3]; relative humidity 20%, listed as Phase 4): 0.05% | water uptake (in mass percent) ([3]; relative humidity 40%, listed as Phase 4): 0.02% | water uptake (in mass percent) ([3]; relative humidity 60%, listed as Phase 4): 0.15% | water uptake (in mass percent) ([3]; relative humidity 80%, listed as Phase 4): 1.80%
SMILES: COc1ccc(CC(=O)NCc2ccccc2-c2ccccc2C(=O)NCCc2cccnc2)cc1 [Polymorph 4, 2′-{[2-(4-methoxy-phenyl)-acetylamino]-methyl}-biphenyl-2-carboxylic acid (2-pyridin-3-yl-ethyl)-amide]

stability outside the mother liquor [6]: only moderately stable | form obtained on transformation ([6]; outside the mother liquor): starts to transform to polymorph 2
SMILES: COc1ccc(CC(=O)NCc2ccccc2-c2ccccc2C(=O)NCCc2cccnc2)cc1 [chloroform solvate, 2′-{[2-(4-methoxy-phenyl)-acetylamino]-methyl}-biphenyl-2-carboxylic acid (2-pyridin-3-yl-ethyl)-amide]

The next lines start with the molecule.

SMILES: COc1ccc(CC(=O)NCc2ccccc2-c2ccccc2C(=O)NCCc2cccnc2)cc1 [Polymorph 1, 2′-{[2-(4-methoxy-phenyl)-acetylamino]-methyl}-biphenyl-2-carboxylic acid (2-pyridin-3-yl-ethyl)-amide]
temperature range in which the polymorph is thermodynamically stable [1]: below 90 °C | relative thermodynamic stability among the known polymorphs [2]: thermodynamically most stable | water uptake (in mass percent) ([3]; relative humidity 20%, listed as Phase 1): 0.00% | water uptake (in mass percent) ([3]; relative humidity 40%, listed as Phase 1): 0.01% | water uptake (in mass percent) ([3]; relative humidity 60%, listed as Phase 1): 0.01% | water uptake (in mass percent) ([3]; relative humidity 80%, listed as Phase 1): 1.36%

SMILES: COc1ccc(CC(=O)NCc2ccccc2-c2ccccc2C(=O)NCCc2cccnc2)cc1 [Polymorph 2, 2′-{[2-(4-methoxy-phenyl)-acetylamino]-methyl}-biphenyl-2-carboxylic acid (2-pyridin-3-yl-ethyl)-amide]
solubility compared to other polymorphs [5]: higher solubility | thermodynamic stability (in words) [1]: metastable at any temperature | water uptake (in mass percent) ([3]; relative humidity 20%, listed as Phase 2): 0.04% | water uptake (in mass percent) ([3]; relative humidity 40%, listed as Phase 2): 0.05% | water uptake (in mass percent) ([3]; relative humidity 60%, listed as Phase 2): 0.09% | water uptake (in mass percent) ([3]; relative humidity 80%, listed as Phase 2): 1.79%

SMILES: COc1ccc(CC(=O)NCc2ccccc2-c2ccccc2C(=O)NCCc2cccnc2)cc1 [Polymorph 3, 2′-{[2-(4-methoxy-phenyl)-acetylamino]-methyl}-biphenyl-2-carboxylic acid (2-pyridin-3-yl-ethyl)-amide]
thermodynamic stability (in words) [1]: only metastable below 90 °C | water uptake (in mass percent) ([3]; relative humidity 20%, listed as Phase 3): 0.02% | water uptake (in mass percent) ([3]; relative humidity 40%, listed as Phase 3): 0.03% | water uptake (in mass percent) ([3]; relative humidity 60%, listed as Phase 3): 0.06% | water uptake (in mass percent) ([3]; relative humidity 80%, listed as Phase 3): 0.30%
